According to the NIST ThermoML archive (doi:10.1021/acs.jced.6b00949):
± gives the expanded uncertainty stated by the source.

Assays:
[1] = 293.15 K; 101.3 kPa; Liquid; Vibrating tube method
[2] = refractive index (Na D-line) (dimensionless); details: 293.15 K; 101.33 kPa; Liquid; Standard Abbe refractometry

Structure (SMILES) | mass density [1] [kg/m3] | refractive index [2]
CCO [ethanol] | 789.2 ± 1.6 | 1.3616 ± 0.0025
CO [methanol] | 792.1 ± 1.6 | 1.3285 ± 0.0025
CC(=O)OCC(C)C [2-methylpropyl ethanoate] | 873.4 ± 1.6 | 1.3902 ± 0.0025
